In patent US20130060020A1, “Compounds useful for treating neurodegenerative disorders” (Satori Pharmaceuticals, Inc., priority 2011, published 2013):
Like-named read-outs stand apart in the source and are kept apart here.

Key:
Aβ 42 = assay: % 42 lowering and 40/42 selectivity after dosing in mg/kg (Table 5); assay type: in vivo
Aβ-38 = Aβ-38 MSD 3-plex ELISA, conditioned media of 2B7 cells; assay type: cell-based; settings: Homo sapiens, 5 hours treatment, read-out: Aβ 38 IC50
Description: (§1) Assays were conducted to determine the ability of a Compound of Formula I to modulate […], and Aβ-38.
(§2) Plates with capture antibodies were blocked for 1-2 hours at room temperature with 150 μL of the manufactures blocking reagent.
(§3) Cultured 2B7 cells in 96 well plate with 250 μL of media per well until confluent;
(§4) Prepared serial dilutions of compounds in DMSO at 100× the final desired concentration;
(§5) Washed wells with 2B7 cells 1× with 250 μL of media;
(§6) Diluted DMSO stocks 1:100 into media: • Added 250 μL of media containing compounds (1% DMSO) to wells with 2B7 cells for 5 hours at 37° C.
(§7) ELISA Sample Prep: • Diluted conditioned media: 1 part media with 1% DMSO and 1 part blocking buffer; • 150 μL of the 250 μL of conditioned media were used.
(§8) Prepared per manufacturer's protocol (see above). • Seven point standard curve samples were prepared that contained Aβ-42, Aβ-40, and Aβ-38. The highest concentration of Aβ-42 and Aβ-38 was 3,000 pg/mL and the highest concentration of Aβ-40 was 10,000 pg/mL. Subsequent serial dilutions were 1:3 and the final composition of each sample was 1 part blocking buffer and 1 part cell medium containing 1% DMSO.
(§9) Overnight Sample Incubation: • Blocked plates are washed 5× with MSD wash buffer with a plate washer; • […] and blocker G reagent in MSD blocking solution was added; • 25 μL of samples (1 part conditioned media containing 1% DMSO and 1 part MSD blocking buffer) were then added; • Plates were incubated overnight at 4 degrees C. or 2 hours at room temperature.
(§10) Final Wash and Readout: • Washed wells 5× with MSD wash buffer; • Added 150 μL 2×MSD read buffer; • Read with MSD imager.
(§11) Aβ peptide levels for each peptide were calculated from the standard curve using the MSD software provided with the MSD 2400 Imager. Percent vehicle values for each compound dosage were then calculated and fit to a 4 parameter curve generating IC50 values.
(§12) Conditioned media from 2B7 cells (Mayo) was collected after 5 hours of treatment and diluted with 1 volume of Meso Scale Discovery (MSD, Gaithersburg Md.) blocking buffer (1% BSA in MSD wash buffer). For total Aβ measurements, standard-bind, multi-array single spot 96 well MSD ELISA plates were coated with unlabeled 4G8 capture antibody (Covance, Princeton, N.J.) overnight at 4° C. and then blocked with 5% BSA in MSD wash buffer for 1 hour at room temperature with orbital shaking Diluted 2B7 conditioned media were added to the blocked in-house total Aβ MSD plates with SULFO-TAG 6E10 antibody (MSD). For Aβ38, 40 and 42 measurements, diluted 2B7 conditioned media were added to blocked human (6E10) Aβ 3-Plex plates (MSD). Total Aβ and Aβ 3-Plex plates were incubated for 2 hours at room temperature with orbital shaking followed by washing and reading according to the manufacturer's instructions (SECTOR® Imager 2400, MSD). Aβ concentrations were converted to percent vehicle values and used to construct dose response curves which were fitted to […] using GraphPad Prism version 5.00 for Windows, GraphPad Software, San Diego Calif. USA.

Aβ-42 = Aβ-42 MSD 3-plex ELISA, conditioned media of 2B7 cells; assay type: cell-based; settings: Homo sapiens, 5 hours treatment
Description: as §1, §2, §3, §4, §5, §6, §7, §8, §9, §10, §11, §12

Aβ-40 = Aβ-40 MSD 3-plex ELISA, conditioned media of 2B7 cells; assay type: cell-based; settings: Homo sapiens, 5 hours treatment
Description: as §1, §2, §3, §4, §5, §6, §7, §8, §9, §10, §11, §12

[1] = inflection of dose response curve, read-out: Aβ 42 DR IC50 Inflection

Structure (SMILES)	%42 lowering 10 hr (Aβ 42; 150 mg/kg)	%42 lowering 24 hr (Aβ 42; 100 mg/kg)	%42 lowering 24 hr (Aβ 42; 150 mg/kg)	%42 lowering 10 hr (Aβ 42; 100 mg/kg)	IC50 (Aβ-38) [nM]	IC50 (Aβ-42; [1]) [nM]	IC50 (Aβ-42; read-out: Aβ 42 IC50) [nM]	IC50 (Aβ-40; read-out: Aβ 40 IC50) [nM]	IC50 (Aβ-40; inflection of dose response curve, read-out: Aβ 40 DR IC50 Inflection) [nM]
CCO[C@@H]([C@H]1C[C@@H](C)[C@H]2[C@H](O1)[C@H](O)[C@@]1(C)[C@@H]3CC[C@H]4C(C)(C)[C@@H](O[C@H]5CN(CC6CN(C)C6)CCO5)CC[C@@]45C[C@@]35CC[C@]21C)C(C)(C)O [Compound I-5]	A (% 42 lowering of under 15%)	–	–	–	–	–	–	–	–
CCO[C@@H]([C@H]1C[C@@H](C)[C@H]2[C@H](O1)[C@H](O)[C@@]1(C)[C@@H]3CC[C@H]4C(C)(C)[C@@H](O[C@H]5CN(C6CN(C(C)C)C6)CCO5)CC[C@@]45C[C@@]35CC[C@]21C)C(C)(C)O [Compound I-6]	C (% 42 lowering of 21-25%)	E^a (% 42 lowering of greater than 31%)	–	–	–	–	–	–	–
CCO[C@@H]([C@H]1C[C@@H](C)[C@H]2[C@H](O1)[C@H](O)[C@@]1(C)[C@@H]3CC[C@H]4C(C)(C)[C@@H](O[C@H]5CN(C6CN(C7CCC7)C6)CCO5)CC[C@@]45C[C@@]35CC[C@]21C)C(C)(C)O [Compound I-13]	D (% 42 lowering of 26-30%)	–	D (% 42 lowering of 26-30%)	–	–	–	–	–	–
CCO[C@@H]([C@H]1C[C@@H](C)[C@H]2[C@H](O1)[C@H](O)[C@@]1(C)[C@@H]3CC[C@H]4C(C)(C)[C@@H](O[C@H]5CN(CC6CN(CCOC)C6)CCO5)CC[C@@]45C[C@@]35CC[C@]21C)C(C)(C)O [Compound I-20]	–	–	–	A^a (% 42 lowering of under 15%)	–	–	–	–	–
CCO[C@@H]([C@H]1C[C@@H](C)[C@H]2[C@H](O1)[C@H](O)[C@@]1(C)[C@@H]3CC[C@H]4C(C)(C)[C@@H](O[C@H]5CN(C6CN(CC7(C)COC7)C6)CCO5)CC[C@@]45C[C@@]35CC[C@]21C)C(C)(C)O [Compound I-32]	–	–	–	–	100 to 500	100 to 500	100 to 500	1000 to 5000	–
CCO[C@@H]([C@H]1C[C@@H](C)[C@H]2[C@H](O1)[C@H](O)[C@@]1(C)[C@@H]3CC[C@H]4C(C)(C)[C@@H](O[C@H]5CN(C6(C)CN(CC7(C)COC7)C6)CCO5)CC[C@@]45C[C@@]35CC[C@]21C)C(C)(C)O [Compound I-34]	–	–	–	–	501 to 1000	100 to 500	100 to 500	1000 to 5000	–
CCO[C@@H]([C@H]1C[C@@H](C)[C@H]2[C@H](O1)[C@H](O)[C@@]1(C)[C@@H]3CC[C@H]4C(C)(C)[C@@H](O[C@H]5CN(C6(C)CN(CCOC)C6)CCO5)CC[C@@]45C[C@@]35CC[C@]21C)C(C)(C)O [Compound I-37]	–	–	–	–	100 to 500	< 100	100 to 500	1000 to 5000	–
CCO[C@@H]([C@H]1C[C@@H](C)[C@H]2[C@H](O1)[C@H](O)[C@@]1(C)[C@@H]3CC[C@H]4C(C)(C)[C@@H](O[C@H]5CN(CC6(O)CN(C)C6)CCO5)CC[C@@]45C[C@@]35CC[C@]21C)C(C)(C)O [Compound I-42]	–	–	–	–	100 to 500	< 100	< 100	501 to 1000	–
CCO[C@@H]([C@H]1C[C@@H](C)[C@H]2[C@H](O1)[C@H](O)[C@@]1(C)[C@@H]3CC[C@H]4C(C)(C)[C@@H](O[C@H]5CN(CC6(O)CN(C7CCC7)C6)CCO5)CC[C@@]45C[C@@]35CC[C@]21C)C(C)(C)O [Compound I-44]	–	–	–	–	100 to 500	< 100	< 100	1000 to 5000	–
CCO[C@@H]([C@H]1C[C@@H](C)[C@H]2[C@H](O1)[C@H](O)[C@@]1(C)[C@@H]3CC[C@H]4C(C)(C)[C@@H](O[C@H]5CN(CC6(O)CN(C7COC7)C6)CCO5)CC[C@@]45C[C@@]35CC[C@]21C)C(C)(C)O [Compound I-45]	–	–	–	–	100 to 500	100 to 500	100 to 500	1000 to 5000	–
CCO[C@@H]([C@H]1C[C@@H](C)[C@H]2[C@H](O1)[C@H](O)[C@@]1(C)[C@@H]3CC[C@H]4C(C)(C)[C@@H](O[C@H]5CN(CC6(O)CN(CCOC)C6)CCO5)CC[C@@]45C[C@@]35CC[C@]21C)C(C)(C)O [Compound I-46]	–	–	–	–	100 to 500	< 100	< 100	501 to 1000	–
CCO[C@@H]([C@H]1C[C@@H](C)[C@H]2[C@H](O1)[C@H](O)[C@@]1(C)[C@@H]3CC[C@H]4C(C)(C)[C@@H](O[C@H]5CN(CC6(O)CN(CC(C)(C)O)C6)CCO5)CC[C@@]45C[C@@]35CC[C@]21C)C(C)(C)O [Compound I-47]	–	–	–	–	100 to 500	100 to 500	100 to 500	1000 to 5000	–
CCO[C@@H]([C@H]1C[C@@H](C)[C@H]2[C@H](O1)[C@H](O)[C@@]1(C)[C@@H]3CC[C@H]4C(C)(C)[C@@H](O[C@H]5CN(CCN(C)C)CCO5)CC[C@@]45C[C@@]35CC[C@]21C)C(C)(C)O [Compound I-59]	–	–	–	–	501 to 1000	100 to 500	100 to 500	1000 to 5000	–
CCO[C@@H]([C@H]1C[C@@H](C)[C@H]2[C@H](O1)[C@H](O)[C@@]1(C)[C@@H]3CC[C@H]4C(C)(C)[C@@H](O[C@H]5CN(CCN6CC(OC)C6)CCO5)CC[C@@]45C[C@@]35CC[C@]21C)C(C)(C)O [Compound I-62]	–	–	–	–	501 to 1000	100 to 500	100 to 500	1000 to 5000	–
CCO[C@@H]([C@H]1C[C@@H](C)[C@H]2[C@H](O1)[C@H](O)[C@@]1(C)[C@@H]3CC[C@H]4C(C)(C)[C@@H](O[C@H]5CN(CCN6CC(F)C6)CCO5)CC[C@@]45C[C@@]35CC[C@]21C)C(C)(C)O [Compound I-63]	–	–	–	–	501 to 1000	100 to 500	100 to 500	1000 to 5000	1000 to 5000
CCO[C@@H]([C@H]1C[C@@H](C)[C@H]2[C@H](O1)[C@H](O)[C@@]1(C)[C@@H]3CC[C@H]4C(C)(C)[C@@H](O[C@H]5CN(CC6(O)CN(CCO)C6)CCO5)CC[C@@]45C[C@@]35CC[C@]21C)C(C)(C)O [Compound I-69]	–	–	–	–	100 to 500	< 100	< 100	501 to 1000	–
CCO[C@@H]([C@H]1C[C@@H](C)[C@H]2[C@H](O1)[C@H](O)[C@@]1(C)[C@@H]3CC[C@H]4C(C)(C)[C@@H](O[C@H]5CN(CC6CN(C(CO)CO)C6)CCO5)CC[C@@]45C[C@@]35CC[C@]21C)C(C)(C)O [Compound I-73]	–	–	–	–	100 to 500	100 to 500	100 to 500	1000 to 5000	–
CCO[C@@H]([C@H]1C[C@@H](C)[C@H]2[C@H](O1)[C@H](O)[C@@]1(C)[C@@H]3CC[C@H]4C(C)(C)[C@@H](O[C@H]5CN(C6CN(C(CO)CO)C6)CCO5)CC[C@@]45C[C@@]35CC[C@]21C)C(C)(C)O [Compound I-74]	–	–	–	–	100 to 500	100 to 500	100 to 500	1000 to 5000	–
